{
  "source": "patent US9702824B2",
  "about": "“pH sensors” (PROMEGA CORPORATION, priority 2012, dated 2017)",
  "key": {"[1]": {"test_system": "IL6-HT7-EGFR (epidermal growth factor receptor) in U2-OS cells", "assay": "Receptor internalization detection by imaging", "type": "cell-based", "conditions": "1 uM sensor, stimulated with 1 ng/mL rhEGF, imaged for 1 hour", "procedure": "(§1) Experiments were conducted during development of embodiments of the present invention to detect and monitor internalization/endocytosis. U2-OS cells expressing (either transiently or stably) a HaloTag (HT7)-Receptor fusion protein containing an IL6 signal sequence were used. The following HT7-receptor fusion proteins were expressed in the U2-OS cells: IL6-HT7-β2AR (β2 adrenergic receptor; NM_000024.3), IL6-HT7-EDG1 ([…]; NM_001400), IL6-HT7-DOR1 (δ-opioid receptor; NM 000911) and IL6-HT7-EGFR (epidermal growth factor receptor; AB528482). The cells were plated at 2×10^5 cells/mL in complete media into wells. The cells were then incubated overnight at 37° C., 5% CO2. The media was then replaced with 200 ul McCoy's 5A media with 0.5% charcoal-stripped FBS (Hyclone) and incubated for about 1 hour at 37° C., 5% CO2. The cells were then labeled with 1 uM pH sensor PBI-4479 and incubated for 10 minutes at 37° C., 5% CO2. The cells were then washed 3 times with 200 ul complete media to remove any unbound sensor. The cells were then stimulated with the respective agonist (1 uM Isoproterenol for IL6-HT7-β2AR, 1 uM S1P for IL6-HT7-EDG1, 1 uM SNC80 for IL6-HT7-DOR1, and 1 ng/mL rhEGF for IL6-HT7-EGFR) and imaged every 5 minutes for 1 hour on an Olympus FV500."}, "[2]": {"molecular_target": "T1, IL6-HT7-β2AR (β2 adrenergic receptor) in U2-OS cells (Homo sapiens, UniProt P07550)", "T1 construct": "expressed in transfected cells; host or cells: U2-OS", "assay": "Receptor internalization detection by imaging", "type": "cell-based", "conditions": "1 uM sensor, stimulated with 1 uM Isoproterenol, imaged for 1 hour", "procedure": "as §1"}, "[3]": {"molecular_target": "T2, IL6-HT7-DOR1 (δ-opioid receptor) in U2-OS cells (Homo sapiens, UniProt P41143)", "T2 construct": "expressed in transfected cells; host or cells: U2-OS", "T2 sequence (P41143 with tags, fused parts or gaps)": "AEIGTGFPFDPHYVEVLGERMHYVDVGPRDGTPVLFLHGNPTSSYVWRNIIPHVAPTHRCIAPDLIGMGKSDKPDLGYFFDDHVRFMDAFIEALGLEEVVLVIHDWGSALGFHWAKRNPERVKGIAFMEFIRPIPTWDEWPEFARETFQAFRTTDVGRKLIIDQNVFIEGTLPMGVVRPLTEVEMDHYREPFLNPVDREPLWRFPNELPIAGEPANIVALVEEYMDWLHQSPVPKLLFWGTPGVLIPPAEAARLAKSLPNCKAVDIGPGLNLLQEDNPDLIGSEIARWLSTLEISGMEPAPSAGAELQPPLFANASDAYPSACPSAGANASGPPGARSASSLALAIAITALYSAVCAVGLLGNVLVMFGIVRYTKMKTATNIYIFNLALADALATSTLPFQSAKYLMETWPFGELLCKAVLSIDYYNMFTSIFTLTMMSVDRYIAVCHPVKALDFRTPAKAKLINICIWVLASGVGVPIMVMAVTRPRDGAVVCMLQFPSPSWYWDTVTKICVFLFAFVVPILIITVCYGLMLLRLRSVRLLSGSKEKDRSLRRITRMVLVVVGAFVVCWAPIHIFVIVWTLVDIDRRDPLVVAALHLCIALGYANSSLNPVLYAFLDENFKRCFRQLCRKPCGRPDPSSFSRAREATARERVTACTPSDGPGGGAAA", "assay": "Receptor internalization detection by imaging", "type": "cell-based", "conditions": "1 uM sensor, stimulated with 1 uM SNC80, imaged for 1 hour", "procedure": "as §1"}, "[4]": {"molecular_target": "T3, IL6-HT7-EDG1 (endothelial differential growth gene 1) in U2-OS cells (UniProt P0A3G2+P21453, A155T/A167V/A172T/A224E/C128F/C176G/D78G/E160K/E257K/H272N/K175M/K195N/L47V/L88M/N227D/S2A/S58T/T264A/Y273L/Y87F)", "T3 construct": "expressed in transfected cells; host or cells: U2-OS", "T3 sequence (P0A3G2+P21453 fused with the stated changes)": "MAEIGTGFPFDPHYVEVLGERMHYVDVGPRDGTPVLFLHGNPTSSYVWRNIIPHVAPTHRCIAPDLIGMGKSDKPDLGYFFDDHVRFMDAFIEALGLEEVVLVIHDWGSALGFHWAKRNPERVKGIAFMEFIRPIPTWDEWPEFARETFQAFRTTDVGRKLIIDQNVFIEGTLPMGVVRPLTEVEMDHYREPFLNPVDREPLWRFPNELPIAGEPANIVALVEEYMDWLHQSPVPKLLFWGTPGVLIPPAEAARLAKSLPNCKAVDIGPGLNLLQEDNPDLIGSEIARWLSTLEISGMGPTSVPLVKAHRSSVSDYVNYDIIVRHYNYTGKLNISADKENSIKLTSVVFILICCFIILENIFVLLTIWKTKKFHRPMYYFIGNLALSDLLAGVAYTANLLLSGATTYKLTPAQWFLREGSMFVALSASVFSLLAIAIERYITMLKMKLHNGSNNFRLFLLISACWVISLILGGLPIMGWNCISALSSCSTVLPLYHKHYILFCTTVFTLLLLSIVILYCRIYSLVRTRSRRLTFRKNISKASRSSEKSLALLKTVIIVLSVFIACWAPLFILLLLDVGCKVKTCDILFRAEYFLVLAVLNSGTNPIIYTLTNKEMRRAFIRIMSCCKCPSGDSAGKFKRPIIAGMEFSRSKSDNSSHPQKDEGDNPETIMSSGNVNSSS", "assay": "Receptor internalization detection by imaging", "type": "cell-based", "conditions": "1 uM sensor, stimulated with 1 uM S1P, imaged for 1 hour", "procedure": "as §1"}, "[5]": {"test_system": "U2-OS cells stably expressing HaloTag-NLS", "assay": "pH sensor permeability, pulse and chase with HaloTag Oregon Green (Example 12)", "conditions": "2 uM pulse for 10 minutes"}, "[6]": {"assay": "pH dependence of fluorescence emission", "type": "physicochemical", "procedure": "Experiments were conducted during development of embodiments of the present invention to determine the fluorescence characteristics of exemplary pH sensor agents PBI-4453 and PBI-4479 (SEE FIG. 1). Fluorescence excitation and emission intensities were measured at a range of wavelengths (SEE FIG. 2). […] Fluorescence detection was performed at a range of pH values (SEE FIG. 3)."}, "[7]": {"assay": "Stability in DMSO by HPLC purity", "type": "physicochemical", "conditions": "2 mM in DMSO; for HPLC Purity @ 532 nm, Ave: average of days 0-110; for HPLC Purity @ 532 nm: shielded from light", "procedure": "PBI-4479 was dissolved to 2 mM in DMSO to approximately 2.33 mg/mL. Aliquots of 350 uL from the 2 mM solution were stored shielded from light at −20° C., 4° C. and room temperature. Stability was established by measuring fluorescent emission intensity and by testing HPLC purity at time 0, 1 day, 1 week, 1 month, 4 months, and 6 months from when the solutions were prepared and stored. For the fluorescence measurements, each aliquot was diluted (1 uL) into 4 mL of 0.1M sodium phosphate pH 4.0 directly into a 4.5 mL plastic cuvette and mixed by inversion of the vial. The maximum emission peak at 562 nm was acquired using a HoribaJobinYvon fluorometer using an excitation of 532 nm with 1.5 nm slit width. For HPLC measurements, each aliquot was diluted to 1 mM in 0.1M sodium phosphate pH 4.0, and 2 uL tested. The purity of each aliquot was tested using an Agilent 1100 liquid chromatography system equipped with a quaternary pump and a diode-array detector. The diode-array detector was set at 254 nm and 532 nm. The elution was performed using a mobile phase (A) containing 0.1% TFA in water, and a mobile phase (B) containing HPLC grade acetonitrile. A Phenomenex Synergi MAX-RP column (50×4.6 mm; 2.6 μm) was used to perform the chromatography. The HPLC was performed as follows: a gradient ran 3% to 60% mobile phase (B) to 3.60 minutes, a hold at 60% mobile phase (B) for 1 minute, a ramp up to 100% mobile phase (B) to 6 minutes, another hold at 100% mobile phase (B) for 2 minutes, and then back to 3% mobile phase (B) for 1.5 minutes. The column was given 2.5 minutes to re-equilibrate back to the starting conditions. In these conditions, the product elutes at approximately 3.7 minutes. Purity (as area percent) of the product was reported at 254 nm and 532 nm."}, "wild-type U2-OS cells": {"test_system": "wild-type U2-OS cells", "assay": "Toxicity of HaloTag pH sensors, CELLTITER Glo Cell Viability Assay (Example 9)", "type": "cell-based", "conditions": "0-10 uM, overnight", "procedure": "U2-OS cells were plated at 10,000 cells/well into wells of 96-well plates and incubated overnight. The next day, 0-10 uM (serially diluted 1:2) PBI-4959, PBI-5004 or PBI-4479 was added to the cells and again incubated overnight. After incubation, the media containing the HaloTag® pH sensors was removed, and 100 ul of fresh media (McCoy's 5A+10% FBS) was added. Cell viability was determined using the CELLTITER Glo Cell Viability Assay according to the manufacturer's protocol (Promega Corporation). Luminescence was read on a GloMAX®-Multi luminometer."}},
  "data": [
    {"molecule": "O=C(NCCOCCOCCOCCOCCOCCOCCCCCCCl)c1ccc(C(=O)[O-])c(-c2c3ccc(=[N+]4CCN(CCCCS(=O)(=O)O)CC4)cc-3oc3cc(N4CCN(CCCCS(=O)(=O)O)CC4)ccc23)c1", "note": "[PBI-4479]", "values": [
      {"measurement": "detection of receptor internalization", "setting": "[1]", "value": "detection of HaloTag-EGFR internalization"},
      {"measurement": "detection of receptor internalization", "setting": "[2]", "value": "detection of HaloTag-B2AR internalization"},
      {"measurement": "detection of receptor internalization", "setting": "[3]", "value": "detection of HaloTag-DOR1 internalization"},
      {"measurement": "detection of receptor internalization", "setting": "[4]", "value": "detection of HaloTag-EDG1 internalization"},
      {"measurement": "cell permeability", "setting": "[5]", "value": "non-permeability"},
      {"measurement": "pH at or below which maximal fluorescence intensity is exhibited", "setting": "[6]", "value": "≤ 3"},
      {"measurement": "percent of maximal fluorescence intensity", "setting": "[6]; at pH 8 or higher", "value": "≤ 1", "unit": "%"},
      {"measurement": "pKa", "setting": "[6]; from pH dependence of fluorescence", "value": "~6.1"},
      {"measurement": "HPLC Purity @ 532 nm, Ave", "setting": "[7]; 4° C.", "value": 93.6, "unit": "area percent"},
      {"measurement": "HPLC Purity @ 532 nm, Ave", "setting": "[7]; RT", "value": 92.5, "unit": "area percent"},
      {"measurement": "HPLC Purity @ 532 nm", "setting": "[7]; 4° C., 0 days", "value": 91.8, "unit": "area percent"},
      {"measurement": "HPLC Purity @ 532 nm", "setting": "[7]; 4° C., 1 day", "value": 92.5, "unit": "area percent"},
      {"measurement": "HPLC Purity @ 532 nm", "setting": "[7]; 4° C., 7 days", "value": 93.9, "unit": "area percent"},
      {"measurement": "HPLC Purity @ 532 nm", "setting": "[7]; 4° C., 30 days", "value": 95.7, "unit": "area percent"},
      {"measurement": "HPLC Purity @ 532 nm", "setting": "[7]; 4° C., 110 days", "value": 93.9, "unit": "area percent"},
      {"measurement": "HPLC Purity @ 532 nm", "setting": "[7]; RT, 0 days", "value": 91.8, "unit": "area percent"},
      {"measurement": "HPLC Purity @ 532 nm", "setting": "[7]; RT, 1 day", "value": 91.3, "unit": "area percent"},
      {"measurement": "HPLC Purity @ 532 nm", "setting": "[7]; RT, 7 days", "value": 92.5, "unit": "area percent"},
      {"measurement": "HPLC Purity @ 532 nm", "setting": "[7]; RT, 30 days", "value": 95.1, "unit": "area percent"},
      {"measurement": "HPLC Purity @ 532 nm", "setting": "[7]; RT, 110 days", "value": 91.8, "unit": "area percent"},
      {"measurement": "HPLC Purity @ 532 nm", "setting": "[7]; −20° C., 0 days", "value": 91.1, "unit": "area percent"},
      {"measurement": "HPLC Purity @ 532 nm", "setting": "[7]; −20° C., 1 day", "value": 93.9, "unit": "area percent"},
      {"measurement": "HPLC Purity @ 532 nm", "setting": "[7]; −20° C., 7 days", "value": 92.7, "unit": "area percent"},
      {"measurement": "HPLC Purity @ 532 nm", "setting": "[7]; −20° C., 30 days", "value": 95.8, "unit": "area percent"},
      {"measurement": "HPLC Purity @ 532 nm", "setting": "[7]; −20° C., 110 days", "value": 95.2, "unit": "area percent"},
      {"measurement": "HPLC Purity @ 532 nm, Ave", "setting": "[7]; −20° C.", "value": 93.7, "unit": "area percent"},
      {"measurement": "toxicity (cell viability)", "setting": "wild-type U2-OS cells", "value": "non-toxicity"}
    ]}
  ]
}
